The text below walks through data of US5663151A, “Sulfated α-glycolipid derivatives as cell adhesion inhibitors” (Bristol-Myers Squibb Company, priority 1995, dated 1997).

Test [1] relates to P-selectin. Particulars: Skinner et al.; cited from earlier work.
Test [2] deals with P-selectin. Conditions: Larsen et al.; Erbe et al.; Aruffo et al.; cited from earlier work.
Test [3] has as its system P-selectin. Conditions: cells grown in the presence of sodium selenate; cited from earlier work.
Test [4] addresses T1, P-selectin Rg (Homo sapiens, UniProt P16109).
T1 construct: consists of the human lectin domain, the EGF domain, and two complement repeats of the human selectins; made in house
The test is described as follows: HL-60 cell binding to P-selectin Rg. Type of test: cell-based. Conditions: HL-60 cells, binding to P-selectin Rg coated wells. On the procedure:
2. HL-60 Cell Binding to P- and E-Selectin RG
The chimeric P- and E-selectin receptor globulin (Rg) consists of the human lectin domain, the EGF domain, and two complement repeats of the human selectins fused to the hinge, CH1 and CH2 domains of human IgG1. These proteins were prepared as described by Aruffo, et al., Cell (1991) 67: 35-44; Walz, et al., Science (1990) 250, 1132-1135.
The HL-60 cell line, obtained from the American Type Culture Collection, ATCC No. CCL240, was employed to investigate P-selectin Rg binding. Assays were done in 96-well tissue culture dishes. The wells were first coated with 0.5 ug goat anti-human Fc antiserum overnight, and nonspecific binding sites were blocked by incubation of the wells with 1% nonfat dry milk in phosphate buffered saline (PBS containing 0.9 mM CaCl2 and 0.8 mM MgSO4) for 30 minutes. The Rg was then bound to the anti Fc-coated wells by incubating 50 ng in 50 ul of PBS for two hours. Cells, washed twice and resuspended in PBS to remove traces of medium components, were labeled with 10 uM calcein acetoxy methyl ester for 30 minutes at 3×10^7 cells per ml at room temperature. Serum-containing medium (RPMI with 20% fetal calf serum) was added, and the cells washed, followed by resuspension in PBS and a further spin. The labeled cells, resuspended in PBS, were added to twice washed Rg-containing wells at 200,000 per well. Following a 30 minute incubation with slow shaking, the wells were aspirated and washed three times with PBS to remove unbound cells. To certain wells were added known numbers of cells for determination of a standard curve of fluorescent units per cell. The fluorescence on the plate was quantitated using a fluorescent plate reader. Following subtraction of a blank representing the binding of cells to non-Rg containing wells (<5000 cells), the specific binding to P- or E- selectin was determined.
Inhibitors of cell binding
Test compounds were prepared by dissolution to a final concentration of 20 mg/ml in dimethyl sulfoxide (DMSO), diluted in PBS to 2 mg/ml, and briefly sonicated prior to use. The Rg coated wells were preincubated at room temperature for 15 minutes with the inhibitor, and 200,000 cells were added to yield the final indicated inhibitor concentration in 160 ul of PBS. The data is obtained as percent inhibition of specific binding: [formula] and a plot of dose vs. percent inhibition of Rg binding is generated in which IC50 (μM) is calculated and reported in Table 1.

Test [5] addresses T2, P-selectin (Homo sapiens, UniProt P16109).
T2 construct: consists of the human lectin domain, the EGF domain, and two complement repeats of the human selectins; made in house
The test is described as follows: P-selectin binding ELISA to immobilized sulfatides (cell free). Particulars: inhibition of P-selectin binding to immobilized sulfatide. How it is done:
Based on the availability of soluble forms of P-selectin prepared as described by Aruffo, A., et al., Cell, 67, 35-44 (1991), a binding ELISA based assay modified from Foxall, et al., J., Cell Biol., 117, 895-902 (1992) was developed to measure inhibitors of P-selectin binding to immobilized sulfatides. Such inhibitors were tested in the assay described below.
0.1 ml of sulfatide (SIGMA) or lysosulfatide (SIGMA) each at 1 μg/ml in MeOH were added to the wells of a 96-well ELISA plate (ProBind, Falcon) and allowed to dry overnight at room temperature. The next day the antigen coated plates were blocked for 1.5 hours at room temperature with 5% BSA (ICN) in buffer containing 20 mM Hepes and 0.15M NaCl, pH 8.0. Wild type P-selectin and mutants thereof were first mixed with HRP-conjugated goat anti-human lgG (Fisher Scientific), serially diluted and then incubated for 30 minutes at 37° C. in buffer containing 20 mM Hepes, 0.15M NaCl, 1% BSA and 0.8 mM CaCl2, pH 8.0 prior to addition to the BSA blocked plates. Following the 30 minute preincubation, the fusion protein-HRP conjugate immunocomplexes were incubated on the blocked antigen coated plates for 45 minutes at 37° C. in the presence or absence of the test compounds and then washed to remove any unbound proteins. Bound complexes were detected by addition of substrate buffer (95 mM NaOAc.3H2 O, 5 mM citric acid monohydrate, 1.4 mM urea/H2O2) containing 3, 3', 5, 5' Tetramethylbenzidine (SIGMA). Reactions were stopped by the addition of 3N sulfuric acid and the absorbance read on an ELISA reader at dual wavelengths 450 and 630 nm. The efficacy of these compounds was compared to that of sulfatide (positive control) or to lysosulfatide (negative control). The data is obtained as percent inhibition of specific binding [formula] and a plot of dose vs. percent inhibition of Rg binding is generated in which IC50 (μM) is calculated and reported as cell free data in Table 1.
On the technique in general: ELISA stands for enzyme-linked immunosorbent assay.

For test [6], the system named is rats. The test is described as follows: Reverse passive Arthus reaction (RPA) in rats. The test is classed as in vivo, Male Sprague Dawley rats. Particulars: 3 mg single dose IV, 4 hours. From the text:
3. Reverse Passive Arthus Reaction in Rats
The reverse passive Arthus reaction in rats is a modification of the method by Mulligan et al., as described in J. Clin. Invest. (1991) 88: 1396-1406. This is an experimental model in which the interaction of antigen-antibodycomplexes and complement leads to a severe vasculitis that is associated with edema, induration, erythema and hemorrhage. The interaction between the antigen-antibody complexes and complement leads to a localized influx of neutrophils. These neutrophils release a variety of mediators that are associated with tissue damage and vascular permeability. The localized inflammatory reaction is measured using different techniques i.e., vascular permeability and neutrophil influx which is evaluated both biochemically and microscopically.
Male Sprague Dawley specific pathogen-free rats with jugular vein cannulae (280-320 g, Hill Top Labs, Pa.) are used in these studies. Animals are acclimated for at least 1 day and individually housed in stainless steel cages. The dorsal region of the rats is closely clipped 2 days prior to the experiments and divided into 4 sites on each side of the midline. Prior to all injections the rats are sedated with 0.4 ml per 300 gm rat of ketamine/rompun [1000 mg (10 ml) of ketamine HCL is mixed with 40 mg (2.0 ml) Rompun] administered IP and or inhalation anesthesia with metafane (methoxyflurane).
Bovin Serum Albumin (BSA) and rabbit polyclonal IgG rich in anti-BSA are purchased from Sigma Chemical Co. (St. Louis, Mo.). Radiolabelled ^125 I-BSA (spAct 1-5 μCi/μg) is purchased from Dupont NEN (Boston, Mass.).
Each rat is administered intradermal (ID) injection of (0.4 mg, 0.6 mg and 0.8 mg) anti-BSA in a volume of 100 μl per injection in normal saline. The ID injections are randomized near the mid dorsal region on both sides of the back bone. Immediately after the ID injections of the anti-BSA, the rats are administered intravenous (IV) injections of BSA (10 mg in 1.0 ml) in normal saline containing ^125 I labeled BSA (1 μCi/ml BSA or 5.0 μCi/kg body wt) for quantification of dermal vascular injury. Anti-inflammatory agents such as inhibitors of adhesion molecules of the present invention are administered IV at a single dose of 3 mg immediately after BSA. Four (4) hours after the IV injection of BSA, the rats are anesthetized with metafane and 2 to 3 ml of blood is withdrawn via the cannula into an anticoagulant containing (EDTA or Heparin) tube and plasma separated and saved for neutrophil and albumin quantitation. The rats are killed and the skin surrounding the injection site (15 mm diameter) is punched out and weighed. The skin samples and a fixed volume of plasma (0.1 to 1.0 ml) is analyzed in a gamma-counter for ^125 I content. Skin samples from the contralateral side are processed and analyzed for myeloperoxidase activity (MPO) as a measure of neutrophil accumulation. As needed, samples are also processed for histological evaluation of the reacted sites.
Vascular Permeability (VP)
The calculation of the plasma protein exudation into skin is made by determining the radioactivity in the tissue and relating this to the level of radioactive albumin in the blood at the time of sacrifice. […] [formula]
Percent inhibition of the test compound at 3 mg was determined as follows: [formula] Myeloperoxidase (MPO)
MPO is located in the azurophil granules of polymorphonuclear leukocytes (PMN). Because of its abundance in these cells (5% dry weight), this enzyme is used as a marker for tissue neutrophil content. For tissue MPO content, the method of Bradley, et al., was used as described in J. Invest. Dermatol. (1982) 78: 206-209. Biopsies from each treatment group were placed in plastic tubes (15×100 mm) containing 10 ml of 0.5% hexadecyltrimethylammonium bromide (HTAB) in 0.05M potassium phosphate buffer pH 6.0. The tissue was then homogenized with a Brinkmann Polytron homogenizer (10s). […]

T1 sequence (P16109 with tags, fused parts or gaps limits assumed): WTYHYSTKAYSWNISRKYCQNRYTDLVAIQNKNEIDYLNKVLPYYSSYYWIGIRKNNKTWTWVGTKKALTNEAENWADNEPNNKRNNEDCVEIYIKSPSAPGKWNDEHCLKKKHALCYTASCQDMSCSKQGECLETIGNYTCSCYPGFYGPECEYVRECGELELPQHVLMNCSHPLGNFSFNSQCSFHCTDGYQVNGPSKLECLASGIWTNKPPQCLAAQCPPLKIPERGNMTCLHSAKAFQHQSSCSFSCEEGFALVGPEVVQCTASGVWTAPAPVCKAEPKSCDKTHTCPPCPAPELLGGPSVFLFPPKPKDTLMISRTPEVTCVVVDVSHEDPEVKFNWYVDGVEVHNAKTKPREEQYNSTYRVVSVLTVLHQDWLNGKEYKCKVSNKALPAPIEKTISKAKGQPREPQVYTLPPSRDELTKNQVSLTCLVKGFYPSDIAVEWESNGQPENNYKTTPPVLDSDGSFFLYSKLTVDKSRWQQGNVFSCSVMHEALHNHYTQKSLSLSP
T2 sequence (P16109 with tags, fused parts or gaps limits assumed): as above

Take dextran sulfate: the “inhibit P-selectin mediated adhesion” value in test [1] is “inhibit P-selectin mediated adhesion”.

In the case of fucoidan, the “inhibit P-selectin mediated adhesion” value in test [1] is listed as “inhibit P-selectin mediated adhesion”.

As for heparin, in test [1], the “inhibit P-selectin mediated adhesion” value is “inhibit P-selectin mediated adhesion”.

sialyl-Le^x: the “P-selectin has been shown to bind” value in test [2] is “shown to bind”.

Regarding `CC(=O)N[C@H]1C(O)O[C@H](CO)[C@@H](O[C@@H]2O[C@H](CO)[C@H](O)[C@H](O)[C@H]2O)[C@@H]1O[C@@H]1O[C@@H](C)[C@@H](O)[C@@H](O)[C@@H]1O` (stereo partly shown) [Le^x], in test [2], the “P-selectin has been shown to bind” value is “shown to bind”.

As for `O=[Se](=O)(O)O` [sodium selenate], in test [3], the “binding of P-selectin to myeloid cell lines” value is listed as “can be inhibited”.

For orientation: IC50 means the concentration that gives 50% inhibition. High values mean lower potency, low ones higher potency. As to `CCCCCCCCCCCCC/C=C/[C@@H](O)[C@H](CO[C@H]1O[C@H](COS(=O)(=O)O)[C@H](OS(=O)(=O)O)[C@H](O)[C@H]1O)NC(=O)CCCCCCCCCCCCCCC` [Example 2, (2S,3R,4E)-3-Hydroxy-2-hexadecanoylamino-1-[4,6-di-O-(sodiumoxysulfonyl)-α-D-galactopyranosyloxy]-4-octadecene], the IC50 amounted to 17 µM in test [4] and 0.2 µM in test [5]. In test [6] (myeloperoxidase), the “RPA MPO % Inhib.” value was 0%. Besides, the “RPA VP % Inhib.” value in test [6] (vascular permeability) was 14%.
